The values below come from patent US9309213B2, “C-3 substituted bicyclooctane based HIV protease inhibitors” (Purdue Research Foundation, priority 2011, dated 2016).

Several values for one entry are separate records, joined by “and”; a condition that tells them apart may be missing. Equal values may be shown once. Read-outs that look alike come from different tables or passages of the source.

One assay addresses T1, HIV-1 protease (Human immunodeficiency virus type 1 group M subtype B, UniProt P04585).
T1 construct: The HIV aspartic protease plays a central role in the life cycle of the virus; It cleaves the virally encoded polyprotein
The assay can be described thus: HIV-1 protease enzyme inhibitory assay (protocol of Toth and Marshall). The class given is biochemical. From the text:
Inhibitors were designed to make additional interactions in the S2-subsite of the protease, especially with the Gly48 backbone atoms in the flap region of the enzyme. All inhibitors in Table 1 were first evaluated in the enzyme inhibitory assay developed by Toth and Marshall (Toth and Marshall, Int. J. Pept. Protein Res. 1990, 36, 544-550). […] The 3-(S)-hydroxy Cp-THF ligand was also investigated in combination with other sulfonamide substituents.
All inhibitors were first tested for their enzyme inhibitory potency using the assay protocol developed by Toth and Marshall.

In a further assay the test system is HIV-1LAI. Put plainly: In vitro antiviral assay, MT-2 cells exposed to HIV-1LAI, MTT assay. The class given is cell-based. Particulars: for loss of antiviral activity (higher IC50) compared to 22: relative to inhibitor 22.
Assay [1] deals with HIV-1ERS104pre (wild type). Put plainly: Antiviral assay in PHA-PBMs, inhibition of p24 Gag protein production, wild-type isolate. The class given is cell-based. Particulars: Human immunodeficiency virus 1; Table 3; HIV-1ERS104pre (wild type), PHA-PBMs, p24 Gag; read-out: IC50 ± SDs.
A further assay has as its system HIV-1MDR/B. The assay can be described thus: microbe, parasite or virus in culture. The class given is cell-based.
The next assay relates to HIV-1MDR/C. Put plainly: microbe, parasite or virus in culture. The class given is cell-based.
The next assay relates to HIV-1MDR/G. Put plainly: microbe, parasite or virus in culture. The class given is cell-based.
For the next assay, the system named is HIV-1MDR/TM. The assay can be described thus: microbe, parasite or virus in culture. The assay is classed as cell-based.
Setting [2] is: read-out: Ki / enzyme inhibitory potency.
The mark [3] stands for this setting: Human immunodeficiency virus 1, MT2, Table 1, MT-2 cells, 100 TCID50s of HIV-1LAI, MTT assay, means of at least two experiments.
Setting [4] is: Human immunodeficiency virus 1, MT2, read-out: antiviral IC50.
[5] abbreviates: Human immunodeficiency virus 1, MT2, read-out: ID50, Table 2, antiviral activity.
The mark [6] stands for this setting: Human immunodeficiency virus 1, read-out: IC50 ± SDs.

For the molecule “((3R,3aS,5R,6aR)-3-Methoxyhexahydro-2H-cyclopenta[b]furan-5-yl [(2S,3R)-3-Hydroxy-4-(N-iso-butyl-4-methoxyphenylsulfonamido)-1-phenylbutan-2-yl]-carbamate [Inhibitor 19d]”, the Ki on HIV-1 protease (setting [2]) was determined as 0.006 nM. In addition, in the assay on HIV-1LAI (Table 1, MT-2 cells, 100 TCID50s of HIV-1LAI, MTT assay, means of at least two experiments, read-out: IC50), the IC50 is 3.4 nM.
For `COc1ccc(S(=O)(=O)N(CC(C)C)C[C@@H](O)[C@H](Cc2ccccc2)NC(=O)O[C@@H]2C[C@@H]3[C@H](OC)CO[C@@H]3C2)cc1` [Inhibitor 19b, (3S,3aS,5R,6aR)-3-Methoxyhexahydro-2H-cyclopenta[b]furan-5-yl [(2S,3R)-3-Hydroxy-4-(N-iso-butyl-4-methoxyphenylsulfonamido)-1-phenylbutan-2-yl]carbamate], the Ki on HIV-1 protease (Table 1, read-out: Ki) was determined as 0.39 nM; at HIV-1 protease (read-out: Ki), 0.95 nM. For the same molecule, the IC50 with HIV-1LAI (setting [3]) and in the assay with HIV-1LAI (setting [4]) was 37 nM in each case. The “loss of antiviral activity (higher IC50) compared to 22” value (shortened to “loss … compared to 22”) with HIV-1LAI is ~5 fold and ~7 fold.
`CC(C)(C)NC(=O)[C@@H]1C[C@@H]2CCCC[C@@H]2CN1C[C@@H](O)[C@H](Cc1ccccc1)NC(=O)[C@H](CC(N)=O)NC(=O)c1ccc2ccccc2n1` [SQV, saquinavir, reference compound] registered an IC50 in the assay on HIV-1LAI (setting [3]) of 15 nM.
Turning to `CC(C)CN(C[C@@H](O)[C@H](Cc1ccccc1)NC(=O)O[C@@H]1C[C@@H]2[C@H](O)CO[C@@H]2C1)S(=O)(=O)c1ccc(N)cc1` [Inhibitor 123, (3S,3aR,5R,6aR)-3-Hydroxyhexahydro-2H-cyclopenta[b]furan-5-yl [(2S,3R)-4-(4-Amino-N-isobutylphenylsulfonamido)-3-hydroxy-1-phenylbutan-2-yl]carbamate], the “loss … compared to 22” value in the assay on HIV-1LAI was determined as 3 fold.
Take `CC(C)CN(C[C@@H](O)[C@H](Cc1ccccc1)NC(=O)O[C@@H]1C[C@@H]2[C@H](O)CO[C@@H]2C1)S(=O)(=O)c1ccc(CO)cc1` [Inhibitor 23, (3S,3aR,5R,6aR)-3-Hydroxyhexahydro-2H-cyclopenta[b]furan-5-yl {(2S,3R)-3-Hydroxy-4-[4-(hydroxymethyl)-N-iso-butylphenylsulfonamido]-1-phenylbutan-2-yl}carbamate]: the Ki at HIV-1 protease (Table 1, read-out: Ki) amounted to 0.06 nM. The molecule also had an IC50 in the assay with HIV-1LAI (setting [3]) of 19 nM. Moreover, in the assay with HIV-1LAI, the “loss … compared to 22” value turned out to be 4 fold.
For the molecule `COc1ccc(S(=O)(=O)N(CC(C)C)C[C@@H](O)[C@H](Cc2ccccc2)NC(=O)O[C@@H]2C[C@H]3[C@@H](C2)OC[C@H]3OC(=O)N(C)C)cc1`, the Ki on HIV-1 protease (Table 2, read-out: Ki) amounted to 0.02 nM. For the same molecule, the IC50 in the assay with HIV-1LAI (setting [5]) worked out at 4.7 nM.
For `COc1ccc(S(=O)(=O)N(CC(C)C)C[C@@H](O)[C@H](Cc2ccccc2)NC(=O)O[C@@H]2C[C@@H]3[C@H](C)CO[C@@H]3C2)cc1` [Inhibitor 19e, (3S,3aR,5R,6aR)-3-Methylhexahydro-2H-cyclopenta[b]furan-5-yl [(2S,3R)-3-Hydroxy-4-(N-iso-butyl-4-methoxyphenylsulfonamido)-1-phenylbutan-2-yl]carbamate], the Ki at HIV-1 protease (Table 1, read-out: Ki) is 0.02 nM and 0.16 nM. Further, the IC50 in the assay on HIV-1LAI (setting [3]) is 25 nM. Further, the “loss … compared to 22” value with HIV-1LAI came to 5 fold.
For `COc1ccc(S(=O)(=O)N(CC(C)C)C[C@@H](O)[C@H](Cc2ccccc2)NC(=O)O[C@@H]2C[C@@H]3C(=O)CO[C@@H]3C2)cc1` [Inhibitor 19a, (3aS,5R,6aR)-3-oxohexahydro-2H-cyclopenta[b]furan-5-yl (2S,3R)-3-hydroxy-4-(N-isobutyl-4-methoxyphenylsulfonamido)-1-phenylbutan-2-ylcarbamate], the Ki at HIV-1 protease (Table 1, read-out: Ki) came out at 0.95 nM. For the same molecule, the IC50 in the assay with HIV-1LAI (Human immunodeficiency virus 1, MT2, Table 1, MT-2 cells, 100 TCID50s of HIV-1LAI, MTT assay, means of at least two experiments, read-out: IC50) is 14 nM.
In the case of `COc1ccc(S(=O)(=O)N(CC(C)C)C[C@@H](O)[C@H](Cc2ccccc2)NC(=O)O[C@@H]2C[C@@H]3[C@H](N(C)C)CO[C@@H]3C2)cc1`, at HIV-1 protease (Table 2, read-out: Ki), the Ki is 12.7 nM.
In the case of `CC(C)CN(C[C@@H](O)[C@H](Cc1ccccc1)NC(=O)O[C@@H]1C[C@@H]2[C@H](O)CO[C@@H]2C1)S(=O)(=O)c1ccc(N)cc1` [drawing 10], the Ki on HIV-1 protease (Table 1, read-out: Ki) stood at 0.079 nM. The IC50 in the assay on HIV-1LAI (setting [3]) amounted to 25 nM.
Take `COC(=O)N[C@@H]1CO[C@@H]2C[C@H](OC(=O)N[C@@H](Cc3ccccc3)[C@H](O)CN(CC(C)C)S(=O)(=O)c3ccc(OC)cc3)C[C@H]12` [drawing 23]: the IC50 in the assay on HIV-1LAI (setting [5]) was 1.6 nM.
As for `COc1ccc(S(=O)(=O)N(CC(C)C)C[C@@H](O)[C@H](Cc2ccccc2)NC(=O)O[C@@H]2C[C@@H]3[C@@H](C)CO[C@@H]3C2)cc1` [Inhibitor 19f, (3R,3aR,5R,6aR)-3-Methylhexahydro-2H-cyclopenta[b]furan-5-yl [(2S,3R)-3-Hydroxy-4-(N-isobutyl-4-methoxyphenylsulfonamido)-1-phenylbutan-2-yl]carbamate], at HIV-1 protease (Table 1, read-out: Ki), the Ki worked out at 0.017 nM.
`COc1ccc(S(=O)(=O)N(CC(C)C)C[C@@H](O)[C@H](Cc2ccccc2)NC(=O)O[C@@H]2C[C@@H]3[C@@H](NC(C)=O)CO[C@@H]3C2)cc1` [Inhibitor 19h, (3′R,3′aR,5′R,6′aR)-3-acetamidohexahydro-2H-cyclopenta[b]furan-5-yl (2S,3R)-3-hydroxy-4-(N-isobutyl-4-methoxyphenylsulfonamido)-1-phenylbutan-2-yl-carbamate]: the Ki at HIV-1 protease (Table 2, read-out: Ki) came out at 0.0075 nM; on HIV-1 protease (setting [2]), 0.007 nM. Also, the IC50 with HIV-1LAI (setting [5]) and with HIV-1LAI (setting [4]) was 31 nM throughout.
As to `COc1ccc(S(=O)(=O)N(CC(C)C)C[C@@H](O)[C@H](Cc2ccccc2)NC(=O)O[C@@H]2C[C@@H]3[C@@H](NS(C)(=O)=O)CO[C@@H]3C2)cc1` [Inhibitor 19j, (3R,3aR,5R,6aR)-3-(methylsulfonamido)hexahydro-2H-cyclopenta[b]furan-5-yl ((2S,3R)-3-hydroxy-4-(N-isobutyl-4-methoxyphenylsulfonamido)-1-phenylbutan-2-yl) carbamate], the Ki on HIV-1 protease (Table 2, read-out: Ki) stood at 0.18 nM. For the same molecule, the IC50 in the assay on HIV-1LAI (setting [5]) is 50 nM.
On to `COc1ccc(S(=O)(=O)N(CC(C)C)C[C@@H](O)[C@H](Cc2ccccc2)NC(=O)O[C@@H]2C[C@@H]3[C@H](NC(C)=O)CO[C@@H]3C2)cc1` [Inhibitor 19g, (3S,3aR,5R,6aR)-3-acetamidohexahydro-2H-cyclopenta[b]furan-5-yl (2S,3R)-3-hydroxy-4-(N-isobutyl-4-methoxyphenylsulfonamido)-1-phenylbutan-2-yl-carbamate], for which the Ki on HIV-1 protease (setting [2]) was 0.007 nM. The figures for the IC50 in the assay on HIV-1LAI (setting [5]) and in the assay with HIV-1LAI (setting [4]) were 21.5 nM and 25 nM, respectively.
On to `CC(C)CN(C[C@@H](O)[C@H](Cc1ccccc1)NC(=O)O[C@@H]1C[C@@H]2[C@@H](O)CO[C@@H]2C1)S(=O)(=O)c1ccc(N)cc1` [Inhibitor 26, (3R,3aR,5R,6aR)-3-Hydroxyhexahydro-2H-cyclopenta[b]furan-5-yl [(2S,3R)-4-(4-Amino-N-iso-butylphenylsulfonamido)-3-hydroxy-1-phenylbutan-2-yl]-carbamate], for which the Ki at HIV-1 protease (Table 1, read-out: Ki) came to 0.006 nM. The molecule further gave an IC50 with HIV-1LAI (setting [3]) of 36 nM.
`CC(C)CN(C[C@@H](O)[C@H](Cc1ccccc1)NC(=O)O[C@H]1CCOC1)S(=O)(=O)c1ccc(N)cc1` [APV, amprenavir, reference compound]: the IC50 stood at 30 ± 6 nM in assay [1]; 930 ± 280 nM in the assay with HIV-1MDR/B (setting [6]); 260 ± 30 nM with HIV-1MDR/C (setting [6]); 380 ± 30 nM in the assay on HIV-1MDR/G (setting [6]); 190 ± 60 nM in the assay on HIV-1MDR/TM (setting [6]). The “fold change of IC50” value with HIV-1MDR/B (Table 3, HIV-1MDR/B compared to wild-type HIV-1ERS104pre) amounted to 31; in the assay on HIV-1MDR/C (Table 3, HIV-1MDR/C compared to wild-type HIV-1ERS104pre) it was 9; in the assay on HIV-1MDR/G (Table 3, HIV-1MDR/G compared to wild-type HIV-1ERS104pre), 12; with HIV-1MDR/TM (Table 3, HIV-1MDR/TM compared to wild-type HIV-1ERS104pre) it was 6.
Regarding `CON[C@@H]1CO[C@@H]2C[C@H](OC(=O)N[C@@H](Cc3ccccc3)[C@H](O)CN(CC(C)C)S(=O)(=O)c3ccc(OC)cc3)C[C@H]12`, at HIV-1 protease (Table 2, read-out: Ki), the Ki was determined as 0.088 nM. Besides, the IC50 in the assay with HIV-1LAI (setting [5]) was 81.5 nM.
On the same counts, the results for `COC(=O)N[C@H]1CO[C@@H]2C[C@H](OC(=O)N[C@@H](Cc3ccccc3)[C@H](O)CN(CC(C)C)S(=O)(=O)c3ccc(OC)cc3)C[C@H]12` [drawing 24] are 0.004 nM and 4.6 nM.
With `COc1ccc(S(=O)(=O)N(CC(C)C)C[C@@H](O)[C@H](Cc2ccccc2)NC(=O)O[C@@H]2C[C@@H]3[C@H](NS(C)(=O)=O)CO[C@@H]3C2)cc1` [Inhibitor 19i, (3S,3aR,5R,6aR)-3-(methylsulfonamido)hexahydro-2H-cyclopenta[b]furan-5-yl ((2S,3R)-3-hydroxy-4-(N-isobutyl-4-methoxyphenylsulfonamido)-1-phenylbutan-2-yl)-carbamate], the Ki at HIV-1 protease (Table 2, read-out: Ki) is 0.017 nM and 0.032 nM. Further, in the assay with HIV-1LAI (setting [5]), the IC50 was 28 nM.
